From ChEMBL document CHEMBL1667832, “Potent and selective cyclohexyl-derived imidazopyrazine insulin-like growth factor 1 receptor inhibitors with in vivo efficacy” (Bioorg Med Chem Lett, 2011)

Columns and labels:
[1] = Permeability of the compound at pH 7.4 by PAMPA; assay type: ADME; settings: read-out: permeability
[2] = Clearance in mouse at 2 mg/kg, iv; assay type: ADME, organism-based; parameters: dose 2 mg/kg, route intravenous; settings: in vivo
[3] = AUC in mouse at 5 mg/kg, po; assay type: ADME, organism-based; parameters: dose 5 mg/kg, route oral; settings: plasma
[4] = Cmax in mouse at 5 mg/kg, po; assay type: ADME, organism-based; parameters: dose 5 mg/kg, route oral; settings: in vivo
[5] = Permeability of the compound at pH 5 by PAMPA; assay type: ADME; settings: read-out: permeability
[6] = Oral bioavailability in mouse at 5 mg/kg; assay type: ADME, organism-based; settings: in vivo
[7] = Volume of distribution at steady state in mouse at 2 mg/kg, iv; assay type: ADME, organism-based; parameters: dose 2 mg/kg, route intravenous; settings: in vivo, read-out: Vdss
[8] = AUC in mouse at 25 mg/kg, po; assay type: ADME, organism-based; parameters: dose 25 mg/kg, route oral; settings: plasma
[9] = Clearance in mouse at 5 mg/kg, iv; assay type: ADME, organism-based; parameters: dose 5 mg/kg, route intravenous; settings: in vivo
[10] = Cmax in mouse at 25 mg/kg, po; assay type: ADME, organism-based; parameters: dose 25 mg/kg, route oral; settings: in vivo
[11] = Volume of distribution at steady state in mouse at 5 mg/kg, iv; assay type: ADME, organism-based; parameters: dose 5 mg/kg, route intravenous; settings: in vivo, read-out: Vdss
[12] = Oral bioavailability in mouse at 25 mg/kg; assay type: ADME, organism-based; settings: in vivo
[13] = Physiological stability of the compound in simulated intestinal fluid assessed as formation of 4-(8-amino-1-(8-fluoro-2-phenylquinolin-7-yl)imidazo[1,5-a]pyrazin-3-yl)cyclohexanecarboxylic acid; assay type: physicochemical; settings: simulated gi fluid
[14] = Antitumor activity against human GEO cells xenografted in nu/nu CD-1 mouse assessed as tumor growth inhibition at 60 mg/kg, po qd for 14 days; assay type: functional; settings: 336 h, read-out: TGI
[15] = molecular target: Cytochrome P450 2C9 (Homo sapiens, UniProt P11712); test: Inhibition of CYP2C9; assay type: ADME
[16] = test system: Mus musculus; test: Toxicity in human GEO cells xenografted nu/nu CD-1 mouse assessed as mortality at 60 mg/kg, po qd for 14 days; assay type: organism-based; parameters: dose 60 mg/kg, route oral; settings: in vivo, 336 h
[17] = molecular target: T1, Cytochrome P450 1A2 (Homo sapiens, UniProt P05177); test: Inhibition of CYP1A2; assay type: ADME
T1 sequence (P05177 whole entry): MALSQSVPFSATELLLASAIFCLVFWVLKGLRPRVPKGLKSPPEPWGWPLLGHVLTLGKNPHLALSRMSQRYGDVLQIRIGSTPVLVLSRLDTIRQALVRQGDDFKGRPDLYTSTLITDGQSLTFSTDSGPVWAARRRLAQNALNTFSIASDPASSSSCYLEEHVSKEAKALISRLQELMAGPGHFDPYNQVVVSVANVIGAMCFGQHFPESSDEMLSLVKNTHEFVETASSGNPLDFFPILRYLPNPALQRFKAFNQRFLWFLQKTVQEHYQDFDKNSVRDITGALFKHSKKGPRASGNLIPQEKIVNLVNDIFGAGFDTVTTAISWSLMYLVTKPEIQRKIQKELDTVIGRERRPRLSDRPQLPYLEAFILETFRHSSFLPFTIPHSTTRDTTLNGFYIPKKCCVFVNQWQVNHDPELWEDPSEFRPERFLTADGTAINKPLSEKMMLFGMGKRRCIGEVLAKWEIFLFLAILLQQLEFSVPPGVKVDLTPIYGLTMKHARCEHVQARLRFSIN

[18] = Physiological stability of the compound in simulated gastric fluids assessed as formation of 4-(8-amino-1-(8-fluoro-2-phenylquinolin-7-yl)imidazo[1,5-a]pyrazin-3-yl)cyclohexanecarboxylic acid at 2 uM; assay type: physicochemical; settings: simulated gi fluid
[19] = test system: Mus musculus; test: Toxicity in human GEO cells xenografted nu/nu CD-1 mouse assessed as effect on blood glucose level at 60 mg/kg, po qd for 14 days; assay type: organism-based; parameters: dose 60 mg/kg, route oral; settings: in vivo, 336 h
[20] = molecular target: Cytochrome P450 2C19 (Homo sapiens, UniProt P33261); test: Inhibition of CYP2C19; assay type: ADME
[21] = Physiological stability of the compound in simulated intestinal fluids assessed as formation of 4-(8-amino-1-(8-fluoro-2-phenylquinolin-7-yl)imidazo[1,5-a]pyrazin-3-yl)cyclohexanecarboxylic acid at 2 uM; assay type: physicochemical; settings: simulated gi fluid
[22] = molecular target: Cytochrome P450 3A4 (Homo sapiens, UniProt P08684); test: Inhibition of CYP3A4; assay type: ADME
[23] = Genotoxicity in Salmonella Typhimurium by Ames test in presence of S9 fractions; assay type: toxicity, S9 Fraction; settings: salmonella enterica subsp. enterica serovar typhimurium
[24] = molecular target: Cytochrome P450 2D6 (Homo sapiens, UniProt P10635); test: Inhibition of CYP2D6; assay type: ADME
Sequence of Cytochrome P450 2D6 (P10635 whole entry): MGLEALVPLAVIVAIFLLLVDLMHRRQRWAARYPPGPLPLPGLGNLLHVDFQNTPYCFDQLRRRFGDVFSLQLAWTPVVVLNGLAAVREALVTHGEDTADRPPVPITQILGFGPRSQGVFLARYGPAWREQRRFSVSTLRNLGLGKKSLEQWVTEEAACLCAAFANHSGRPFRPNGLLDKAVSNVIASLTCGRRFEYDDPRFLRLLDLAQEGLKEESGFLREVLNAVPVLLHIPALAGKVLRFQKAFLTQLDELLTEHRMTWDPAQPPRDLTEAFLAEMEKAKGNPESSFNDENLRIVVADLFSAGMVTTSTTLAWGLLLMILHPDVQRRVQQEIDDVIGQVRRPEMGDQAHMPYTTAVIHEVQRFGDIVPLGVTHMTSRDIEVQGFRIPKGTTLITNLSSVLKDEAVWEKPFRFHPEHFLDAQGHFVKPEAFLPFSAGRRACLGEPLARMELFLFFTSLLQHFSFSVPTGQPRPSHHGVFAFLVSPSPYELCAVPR

Sequence of Cytochrome P450 2C19 (P33261 whole entry): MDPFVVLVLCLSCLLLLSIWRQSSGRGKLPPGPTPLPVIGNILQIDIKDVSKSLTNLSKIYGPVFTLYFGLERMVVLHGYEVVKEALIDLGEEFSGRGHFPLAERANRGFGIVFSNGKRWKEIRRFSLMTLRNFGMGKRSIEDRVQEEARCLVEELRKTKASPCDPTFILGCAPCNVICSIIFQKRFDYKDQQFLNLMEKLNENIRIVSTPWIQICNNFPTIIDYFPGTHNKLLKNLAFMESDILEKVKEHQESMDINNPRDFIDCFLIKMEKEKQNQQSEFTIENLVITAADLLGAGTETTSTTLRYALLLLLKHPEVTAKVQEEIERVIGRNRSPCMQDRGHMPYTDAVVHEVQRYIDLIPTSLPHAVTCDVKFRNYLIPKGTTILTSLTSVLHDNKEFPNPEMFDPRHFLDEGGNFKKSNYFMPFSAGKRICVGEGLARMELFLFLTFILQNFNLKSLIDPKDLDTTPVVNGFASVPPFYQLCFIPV
Sequence of Cytochrome P450 3A4 (P08684 whole entry): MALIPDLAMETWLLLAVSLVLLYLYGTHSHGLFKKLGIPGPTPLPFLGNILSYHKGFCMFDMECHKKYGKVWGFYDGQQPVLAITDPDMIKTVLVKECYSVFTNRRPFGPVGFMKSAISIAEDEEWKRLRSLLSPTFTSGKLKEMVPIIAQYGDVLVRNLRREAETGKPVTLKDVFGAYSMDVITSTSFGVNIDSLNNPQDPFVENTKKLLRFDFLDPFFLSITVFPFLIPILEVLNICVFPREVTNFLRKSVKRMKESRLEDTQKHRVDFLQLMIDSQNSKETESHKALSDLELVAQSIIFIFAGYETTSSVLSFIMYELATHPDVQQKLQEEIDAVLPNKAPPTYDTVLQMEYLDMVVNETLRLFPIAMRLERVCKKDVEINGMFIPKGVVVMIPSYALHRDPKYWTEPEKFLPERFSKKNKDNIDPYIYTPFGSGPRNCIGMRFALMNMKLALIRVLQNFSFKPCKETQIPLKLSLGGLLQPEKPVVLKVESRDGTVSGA
Sequence of Cytochrome P450 2C9 (P11712 whole entry): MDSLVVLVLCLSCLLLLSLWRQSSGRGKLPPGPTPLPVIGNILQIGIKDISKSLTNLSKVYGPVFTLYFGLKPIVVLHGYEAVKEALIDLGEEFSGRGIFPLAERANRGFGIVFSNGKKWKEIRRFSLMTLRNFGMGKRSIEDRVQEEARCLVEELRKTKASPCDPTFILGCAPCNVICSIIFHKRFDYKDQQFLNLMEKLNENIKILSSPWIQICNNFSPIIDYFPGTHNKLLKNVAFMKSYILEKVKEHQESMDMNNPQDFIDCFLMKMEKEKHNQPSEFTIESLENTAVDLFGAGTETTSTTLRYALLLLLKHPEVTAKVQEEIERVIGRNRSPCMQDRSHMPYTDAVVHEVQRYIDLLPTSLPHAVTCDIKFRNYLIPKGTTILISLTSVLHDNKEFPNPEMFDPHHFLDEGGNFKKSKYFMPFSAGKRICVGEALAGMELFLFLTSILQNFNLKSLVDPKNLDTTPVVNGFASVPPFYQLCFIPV

Row | SMILES | Papp [1] | Papp [5] | AUC [8] | clearance [9] | Cmax [10] | Vd [11] | bioavailability [12] | also measured
1 | Nc1nccn2c1c(-c1ccc3ccc(-c4ccccc4)nc3c1F)nc2[C@H]1CC[C@H](CO)CC1 | > 1000 ×10⁻⁶ cm/s | 880 ×10⁻⁶ cm/s | – | – | – | – | – | clearance [2]: 197 mL/min/kg; AUC [3]: 100 ng·h/mL; Cmax [4]: 110 nM; bioavailability [6]: 23%; Vd [7]: 7 L/kg
2 | Nc1nccn2c1c(-c1ccc3ccc(-c4ccccc4)nc3c1F)nc2[C@H]1CC[C@H](C(=O)O)CC1 | > 1000 ×10⁻⁶ cm/s | > 1000 ×10⁻⁶ cm/s | 7970 ng·h/mL | 26 mL/min/kg | 5.5 µM | 2.8 L/kg | 51% | –
3 | Nc1nccn2c1c(-c1ccc3ccc(-c4ccccc4)nc3c1F)nc2[C@H]1CC[C@H](C(=O)Nc2nc3ccccc3[nH]2)CC1 | 766 ×10⁻⁶ cm/s | 538 ×10⁻⁶ cm/s | 158000 ng·h/mL | 1 mL/min/kg | 28 µM | 0.43 L/kg | 50% | inhibition in vivo at 60 mg/kg [14]: 98%; IC50 [15]: 9.8 µM; Activity [16]: Non-toxic; IC50 [17]: > 20 µM; Stability [18]: Stable; Activity [19]: Non-toxic; IC50 [20]: > 20 µM; Stability [21]: Stable; IC50 [22]: > 20 µM; Activity [23]: Non-toxic; IC50 [24]: > 20 µM

More lines, main results first:

Row | Papp [1] | Papp [5] | AUC [8] | clearance [9] | Cmax [10] | Vd [11] | bioavailability [12] | SMILES | also measured
4 | 63 ×10⁻⁶ cm/s | 45 ×10⁻⁶ cm/s | 3570 ng·h/mL | 38 mL/min/kg | 1.9 µM | 2.6 L/kg | 24% | Nc1nccn2c1c(-c1ccc3ccc(-c4ccccc4)nc3c1F)nc2[C@H]1CC[C@H](C(N)=O)CC1 | –
5 | 86 ×10⁻⁶ cm/s | 73 ×10⁻⁶ cm/s | 297 ng·h/mL | 73 mL/min/kg | 0.13 µM | 3.2 L/kg | 5% | Nc1nccn2c1c(-c1ccc3ccc(-c4ccccc4)nc3c1F)nc2[C@H]1CC[C@H](C(=O)Nc2nncs2)CC1 | Stability [13]: Unstable
